From a melting point compilation (Tetko et al.; mined from patent text by program, amines drawn as free bases though some values may be those of a salt)

| melting point | SMILES |
| --- | --- |
| 102 °C | CCOCC1=NC(=Cc2cccs2)C(=O)O1 |
| 152 to 153 °C | CC(C)Oc1cc(/C=C/S(=O)(=O)NC(=O)OC(C)(C)C)n(Cc2ccc(Cl)cc2Cl)n1 |
| 95 to 97 °C | CCOC(=O)Cc1c(C)n(Cc2cccc(C(F)(F)F)c2)c2ccc(OC)cc12 |
| 128 to 131 °C | Cc1ccc(-c2cn(C)cc(-c3cccc(C(F)(F)F)c3)c2=O)c(C)c1 |
| 172 °C | COc1cc(-c2ccc(C(C)C)cc2)c(C)c2oc(=O)c(C)c(C)c12 |
| 175 to 176 °C | Cn1nnnc1CC(O)(c1ccccc1)c1ccccc1 |
| 98 to 99 °C | Cn1c(=O)n(C(=O)OC(C)(C)C)c2ccc(Br)cc21 |
| 120 to 122 °C | Cc1nn(C)c(OC(=O)CCl)c1C(=O)c1ccc(Cl)cc1Cl |
| 149 °C | CC(C)(C)c1ccc(CCOc2ncnc3nccnc23)cc1 |
| 265 to 268 °C | c1csc(-c2nc3cnccc3[nH]2)c1 |
| 145 °C | CC(C)[C@H](NC(=O)N(C)Cc1ccccn1)C(=O)O |
| 104 to 105 °C | CCN(CC)CCNC(=O)c1cc(C#N)c(Cl)cc1OC |
| 180 to 181 °C | CCOC(=O)c1sc2[nH]c(C(=O)c3ccccc3)cc2c1C |
| 142 to 143 °C | Cc1nc(N2CCN(CC3CCCC3)C2=O)sc1C(=O)NCc1cccnc1 |
| 100 °C | COC(=O)[C@@H]1[C@H](c2ccccc2)CC(=O)N1C |
| 106 to 108 °C | CC(CNc1ccc(Cl)cc1[N+](=O)[O-])OS(C)(=O)=O (stereo not drawn) |
| 130 to 131 °C | CC(=O)c1c2cnnc-2sn1C |
| 104 to 108 °C | Cn1nnc2sccc2c1=O |
| 133 to 136 °C | CC(CCc1ccccc1)N(Cc1ccccc1)CC(O)c1ccc(N)c(S(N)(=O)=O)c1 (stereo not drawn) |
| 112 to 115 °C | COC(=O)C(O)C(Sc1cc(Oc2cccc(C)c2)ccc1N)c1ccc(OC)cc1 (stereo not drawn) |

| melting point | SMILES |
| --- | --- |
| 267 to 268 °C | O=C(NC1=NCCS1)c1cnc2c(C(F)(F)F)cccc2c1O |
| 55 to 57 °C | Cc1ccc(S(=O)O)cc1 |
| 105 to 107 °C | Cc1ocnc1-c1cc(C(C)(C)C)c(O)c(C(C)(C)C)c1 |
| 151 to 154 °C | CC(C)S(=O)(=O)NC(=O)Nc1ccc(Cl)c(Cl)c1 |
| 128 to 129 °C | CC(=O)c1ccc2c(c1)C(C)c1cc(C(C)=O)ccc1-2 |
| 80 to 90 °C | CC(C)(O)CON1C(C)(C)CC(OC(=O)c2ccc3nn(-c4cc(C(C)(C)C)cc(C(C)(C)c5ccc(Cl)cc5)c4O)nc3c2)CC1(C)C |
| 175 to 178 °C | CSc1nnc(Cc2ccccc2S(N)(=O)=O)s1 |
| 118 °C | CCCCCCCNC(=O)N(C)c1cccc(-c2ccc(CCC(=O)O)cn2)c1 |
| 140 °C | Fc1ccc(F)c(-n2nnc3cccnc32)c1 |
| 62 to 64 °C | CC(O)c1cccc([N+](=O)[O-])c1Cl (stereo not drawn) |
| 116 to 118 °C | COC(OC)c1cnc(-c2ccccc2)nc1N |
| 251 °C | COc1ccc2nc(C)c(S(N)(=O)=O)n2n1 |
| 146 °C | CCNC(=O)N(CC)C(=O)c1nc(Cl)c(Cl)[nH]1 |
| 109 to 110 °C | COc1ccc(O)c(CNc2cccs2)c1 |
| 162 to 164 °C | COC(=O)c1c(C(=O)OC)c2n(c1C)-c1ccccc1C2 |
| 153 to 154 °C | CC1(CCN2CCN(C(C)(C)C)C(=O)C2)Cn2cc([N+](=O)[O-])nc2O1 (stereo not drawn) |
| 180 to 183 °C | Cn1nc(-c2ccnc(N[C@H]3CC[C@H](O)CC3)n2)c2ccccc21 |
| 127 to 129 °C | COc1cc(C=O)cc2c(N(C)C)cc(C)nc12 |
| 134 to 136 °C | CCOc1ccnc(N2CCN(C(=O)c3ccccc3C=O)CC2)n1 |
| 170 °C | O=C(c1cccs1)c1cnn2c(-c3cccc(-c4nnn(Cc5ccncc5)n4)c3)ccnc12 |

| melting point | SMILES |
| --- | --- |
| 232 to 235 °C | CC(=CC(=O)Nc1ccc(C(=O)O)cc1)c1cc(C(C)C)c(C(C)C)o1 |
| 125 to 126 °C | COc1cc(C=CC=O)ccc1OCc1nc(-c2ccco2)oc1C |
| 95 to 101 °C | CCCc1nc(CO)c[nH]1 |
| > 260 °C | O=C1c2cc(F)ccc2C(=O)c2c1nc1ccccn21 |
| 242 °C | Cn1c2ccccc2c2c(=O)[nH]ccc21 |
| 155 to 156 °C | CCc1cc2c(-c3ccccc3Cl)c(C(=O)O)c(=O)n(C)c2s1 |
| 150 °C | CC(C)CC(C(=O)Nc1cc(Cl)cc(Cl)c1)N1C(=O)C=CC1=O (stereo not drawn) |
| 184 to 185 °C | CC(C)NS(=O)(=O)c1sccc1-c1cccc2cc(-c3ncc(CCl)s3)[nH]c12 |
| 197 to 199 °C | CCOC(=O)c1cc2cccc(O)c2[nH]1 |
| 244 to 245 °C | CC(=O)NC(NC(=O)c1cc(C)cc(C)c1)C(N)=O (stereo not drawn) |
| 199 to 201 °C | COc1cc(OC)cc(C(=CC#N)c2ccc3c(c2)nc(C)n3C)c1 |
| > 300 °C | COc1cc2nc(N)nc(-c3ccc(O)c(C(=O)O)c3)c2cc1OC |
| 259 to 264 °C | CC1NC(=O)NN=C1c1ccc(S(N)(=O)=O)cc1 (stereo not drawn) |
| 175 to 176 °C | O=C(O)Cc1csc(-c2ncccc2O)n1 |
| 240 to 242 °C | CC(C)(C)c1cc(C=C2SC(NC#N)=NC2=O)cc(C(C)(C)C)c1O |
| 52 to 54 °C | CN1CCCCc2cc([N+](=O)[O-])ccc21 |
| 75.5 to 76.5 °C | Cc1cc(Cl)c(C(=O)c2ccccc2)c(Cl)c1 |
| 145 to 147 °C | Cc1ccc(S(=O)(=O)OCC2CCn3c(nc4ccccc43)S2)cc1 (stereo not drawn) |

The remaining lines, values behind:

| SMILES | melting point |
| --- | --- |
| O=C(O)CC1(O)CCC(N2CCC(Nc3ccncc3)CC2)CC1 (stereo not drawn) | 261 °C |
| CC1=C(c2ccc(C(=O)N3Cc4cccn4Cc4ccccc43)cc2)CCCC1=O | 95 to 97 °C |
| O=C(c1cc(=O)c2cc(O)ccc2[nH]1)N1CCC(Oc2ccccc2)CC1 | 270 °C |
| O=S(=O)(Nc1ncnc(Cl)c1-c1ccc(C(F)(F)F)cc1)c1ccc(Cl)cc1 | 262 to 264 °C |
| Cc1cccc(COc2ccc(C#N)cc2Cl)c1 | 73 to 75 °C |
| N#Cc1c(Cl)cccc1C=O | 138 to 140 °C |
| O=C1CNc2ncc(I)cc2N1Cc1ccccc1OC(F)(F)F | 235 °C |
| CN(CCCN1C(=O)CSC1c1cc(C(C)(C)C)c(O)c(C(C)(C)C)c1)CCOc1ccc2c(c1)OCO2 (stereo not drawn) | 70 to 71 °C |
| N=C(OCc1ccc(Cl)cc1)N1Cc2ccccc2-c2ccccc2C1 | 103 to 105 °C |
| CNC1(c2ccccc2)CC=C(c2[nH]c3ccccc3c2CCc2ccncc2)CC1 (stereo not drawn) | 168 to 172 °C |
| NC(=O)c1ccc(N2CCN(CCCC3OCCc4ccccc43)CC2)cc1 (racemic) | 185 °C |
| C=CCOc1cc(C)ccc1N1C(=O)c2ccccc2C1=O | 122 to 124 °C |
| O=C1CCCC(Sc2ccccc2)C(c2ccccc2)O1 (stereo not drawn) | 166 °C |
| O=C(O)CCCOc1ccc(C23CC4CC(CC(C4)C2)C3)cc1Cl | 164 to 166 °C |
| CCCCNC(=O)OCCCC(=O)c1ccccc1 | 52 to 58 °C |
| Cc1ccc(OCc2ccccc2)c2[nH]c(-c3ccccc3)nc12 | 221 to 224 °C |
| Cn1c(CN2C(=O)C3(COc4cc5c(cc43)CCO5)c3ccccc32)nc2ccccc21 (stereo not drawn) | 244 to 246 °C |
| CCCCCCCCCCCCSCCOc1ccc(CCC(=O)O)cc1 | 68 to 69 °C |
| N#CCN1CCc2ccccc2C(Oc2ccc(C(F)(F)F)cc2)C1 (stereo not drawn) | 125 to 129 °C |
| CNC(=S)NS(=O)(=O)c1cc2c(cc1OC)OC(C)(C)C(NC(=O)c1cc(F)ccc1OC)C2 (stereo not drawn) | 222 °C |
| CCCCCCC(=N)NC(=S)Nc1ccc(Br)cc1 | 112 to 113 °C |
| CCOC(=O)c1cn(Cc2ccc(OCc3nc(-c4ccccc4)oc3C)cc2)nc1OCc1ccc(OCc2nc(-c3ccccc3)oc2C)cc1 | 118 to 119 °C |
| CCOC(=O)C(C#N)(CCN1CCOCC1)c1ccc(C(F)(F)F)cc1 (stereo not drawn) | 96 to 97 °C |

| SMILES | melting point |
| --- | --- |
| CCC(=C[N+](=O)[O-])NCc1ccc(Cl)nc1 | 95 to 98 °C |
| OCC1CC(O)C(n2c(Br)nc3cc(Cl)c(Cl)cc32)C1 (stereo not drawn) | 218 to 220 °C |
| CC(C)(C)C(=O)c1ccc(C(=O)N(C(=O)c2ccc(C(=O)C(C)(C)C)cc2)C(=O)c2ccccc2C(=O)C(C)(C)C)cc1 | 185 to 188 °C |
| O=C1CN2Cc3cc(OCCCCCCO)ccc3N=C2N1 | 236 to 237 °C |
| CN1CCC(Oc2cccc(Cn3cnc4cc(-c5ccc(Cl)cc5)sc4c3=O)n2)CC1 | 202 to 203 °C |
| Cc1cc(C)cc([PH](=O)c2cc(C)cc(C)c2)c1 | 82.4 °C |
| CCCCCCCCCCOc1ccc(C(=O)c2ccc(OC(=O)[C@H]3CCCO3)cc2)cc1 | 80 °C |
| ONCCc1ccccc1 | 118 to 121 °C |
| Cn1nc(-c2ccc(F)cc2)c(-c2ccncc2)c1CCCc1ccccc1 | 83 to 87 °C |
| O=c1c2c(Cc3ccccc3C(F)(F)F)n[nH]c2c2cccnc2n1-c1ccccc1 | 292 to 294 °C |
| CN(CCCc1nc2ccccc2[nH]1)C(=O)OCc1ccccc1 | 83 to 86 °C |
| c1ccc2c(OC[C@H]3CCCN3c3ncnc4[nH]cnc34)ccc(CN3CCOCC3)c2c1 | 134 to 138 °C |
| O=C(NCCc1cccc2ccc(OC3CCCCC3)cc12)C1CCC1 | 116 to 118 °C |
| NCCc1cccc(N2C(=O)N(c3ccccc3Br)Cc3cnc(Nc4ccccc4)nc32)c1 | 130 °C |
| OCCC(c1ccccc1)c1cc(Br)ccc1OCc1ccccc1 (stereo not drawn) | 70 °C |
| CCOP(=O)(Cc1ccc(NC(=O)c2cc3c(s2)-c2c(SC)sc(C(=O)Nc4ccc(CP(=O)(OCC)OCC)cc4)c2CC3)cc1)OCC | 262 to 263 °C |
| CCOC(=O)CN1C(=O)C2=C(c3ccccc3)N(CC(=O)OCC)C(=O)C2=C1c1ccccc1 | 204 to 208 °C |
| O=C1CCC(N2Cc3c(OCc4ccc(Cn5cnnc5)cc4)cccc3C2=O)C(=O)N1 (stereo not drawn) | 173 to 175 °C |
| CCCN(CCO)C(=O)c1ccc(C(=O)N2CCN(c3ncccc3NC(C)C)CC2)cc1 | 79 to 82 °C |
| Cc1ccc(OCc2ccccc2)c(C(=O)O)c1C(=O)O | 200 to 203 °C |
| CC(C)CCCC(C)C1CCC2C3CCC4=CC(=O)C=CC4(C)C3CCC12C (stereo not drawn) | 50 to 57 °C |
| O=c1cc(O)c2ccc(OCC(O)COc3ccccc3)cc2o1 (stereo not drawn) | 145 to 175 °C |
